{"source": "patent US20220264883A1", "about": "“IMIDAZOTHIAZOLE COMPOUNDS AND METHODS FOR TREATING PLANT NEMATODE INFECTIONS” (The Governing Council of the University of Toronto, priority 2019, published 2022)", "tested_on": "tomato plants", "experiment": "Root mass of tomato plants in the infectivity assays", "assay_type": "in vivo, Solanum lycopersicum", "details": "45 μM", "description": "An M. incognita population originally collected from grape (Vitis vinifera) in Parlier, Calif., was used for all experiments, and they were maintained on tomato plants (Solanum lycopersicum ‘Rutgers’) as previously described^73. Infective J2 juveniles were collected as described in^73. For the infectivity assays, 90 grams of soil (1:1 sand:loam mix) was added to each cell of several 6-cell plastic garden packs. The soil was drenched with 18 mL of deionized water containing dissolved chemical or DMSO alone. 2,500 infective J2 juveniles were then added to the soil in 2 mL of deionized water, for a total water volume of 20 mL. The final concentration of the chemicals in water was 45 μM. The DMSO concentration varied from 0.1% to 0.8% (v/v) depending on the stock concentration of the chemical. The highest DMSO concentration was used as the DMSO control. The J2s were incubated in the soil and chemical for 24 hours, after which two- to three-week old tomato seedlings were transplanted into the soil (one plant per cell). Two replicates were performed for each chemical treatment, and four replicates were done for the DMSO controls. The whole experiment was replicated twice, in two different batches on two different days, for a total of four replicates for each chemical treatment, and eight replicates for the DMSO controls. Inoculated plants were grown for 8 weeks in a greenhouse, as described^73, under long-day conditions (16-h photoperiod) with 26/18° C. day/night temperatures. After 8 weeks, the plants were destructively harvested. The tops were removed and discarded, and roots were gently washed with water to remove adhering soil. Eggs were extracted by placing rinsed roots in 0.6% sodium hypochlorite and agitating at 300 rpm for 3 min. Roots were then rinsed over nested 250- and 25.4-μm sieves, with eggs collected from the latter and suspended in water. Roots were dried in a 65° C. oven for at least 24 hours, after which dry roots were weighed. The number of eggs from each plant root was counted on a dissection microscope using a haemocytometer, and the number of eggs per milligram of root was calculated by dividing the total egg number by the mass of the dried root material. An average was taken across the replicates performed on the same day, and then normalized to the DMSO control average. To calculate percent effectiveness at inhibiting reproduction, the normalized values were subtracted from 1, and then multiplied by 100. An average percent effectiveness value was then calculated across the two different batches carried out on different days."}
{"smiles": "Clc1ccc(-c2cn3ccsc3n2)cc1", "note": "[Ia]", "values": [{"measurement": "Normalized root mass (relative to DMSO control)", "value": 1.3}]}
